Experimental data published in US11932634B2 (Gilead Sciences, Inc., priority 2021, dated 2024).

Key:
human DGKα = molecular target: T1, human DGKα (Homo sapiens, UniProt P23743); assay: DGKα Biochemical Activity Assay (ADP-Glo);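 note: recombinant enzyme converting diacylglycerol in lipid micelles with ATP, ADP formed detected by luminescence, IC50 from a four-parameter nonlinear fit, geometric mean across experiments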
T1 construct: purchased Carna Biosciences'; inferred from the same paragraph's 'obtained from Carna Biosciences')

[1] = tested on: Jurkat NFκB-luciferase cells; assay: Jurkat NFκB-Luciferase Assay; type: cell-based; details: Homo sapiens; Jurkat NFκB-luciferase cells activated with anti-CD3 antibody (OKT3), 2.5 hrs at 37° C., One-Glo Ex; geometric mean; read-out: DGK NFKb Luciferase EC50;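 note: bioluminescence read-out normalized to DMSO basal activation and to maximum enhancement at 1 µM compound, rising signal indicating stronger T-cell activation through DGKα inhibition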

T1 sequence (P23743 whole entry): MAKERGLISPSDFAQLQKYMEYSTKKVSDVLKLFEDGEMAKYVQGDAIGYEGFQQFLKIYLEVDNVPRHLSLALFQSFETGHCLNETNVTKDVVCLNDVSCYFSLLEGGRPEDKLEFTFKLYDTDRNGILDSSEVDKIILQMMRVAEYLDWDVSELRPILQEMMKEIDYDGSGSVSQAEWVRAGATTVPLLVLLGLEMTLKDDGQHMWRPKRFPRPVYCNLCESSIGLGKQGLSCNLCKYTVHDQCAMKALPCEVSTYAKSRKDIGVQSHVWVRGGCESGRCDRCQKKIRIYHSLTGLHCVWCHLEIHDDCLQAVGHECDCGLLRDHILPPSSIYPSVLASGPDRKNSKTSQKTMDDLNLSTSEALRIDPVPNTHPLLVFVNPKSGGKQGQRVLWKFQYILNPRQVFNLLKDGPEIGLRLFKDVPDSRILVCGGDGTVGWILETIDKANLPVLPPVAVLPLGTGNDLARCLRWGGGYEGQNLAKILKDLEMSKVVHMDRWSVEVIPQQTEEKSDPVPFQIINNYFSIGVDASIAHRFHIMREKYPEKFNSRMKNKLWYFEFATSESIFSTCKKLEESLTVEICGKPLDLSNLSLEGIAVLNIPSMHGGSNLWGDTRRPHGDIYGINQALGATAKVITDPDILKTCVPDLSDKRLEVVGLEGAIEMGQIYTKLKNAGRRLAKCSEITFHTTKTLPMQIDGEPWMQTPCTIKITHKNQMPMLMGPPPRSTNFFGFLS

Compound | IC50 (human DGKα) | EC50 [1]
Cn1c(=O)nc(N(CC(F)(F)F)c2cc(F)cc(C#CC3(C(F)(F)F)CC3)c2)c2c(F)cccc21 [Example 31, 5-fluoro-4-[3-fluoro-N-(2,2,2-trifluoroethyl)-5-[2-[1-(trifluoromethyl)cyclopropyl]ethynyl]anilino]-1-methyl-quinazolin-2-one] | 45.7 nM | 2.89 nM
Cn1c(=O)nc(N(CC(F)(F)F)c2cc(F)cc(C#CC3(C(F)(F)F)CC3)c2)c2ccc(Cl)cc21 [Example 32, 7-chloro-4-[3-fluoro-N-(2,2,2-trifluoroethyl)-5-[2-[1-(trifluoromethyl)cyclopropyl]ethynyl]anilino]-1-methyl-quinazolin-2-one] | 123 nM | 1.02 nM
O=c1nc(N(CC(F)F)c2cc(F)cc(C#CC3(C(F)(F)F)CC3)c2)c2ccc(Cl)cc2n1CCO [Example 33, 7-chloro-4-[N-(2,2-difluoroethyl)-3-fluoro-5-[2-[1-(trifluoromethyl)cyclopropyl]ethynyl]anilino]-1-(2-hydroxyethyl)quinazolin-2-one] | 284 nM | 3.65 nM
CC(C)(O)C#Cc1cc(F)cc(N(CC(F)F)c2nc(=O)[nH]c3cccc(F)c23)c1 [Example 34, 4-[N-(2,2-difluoroethyl)-3-fluoro-5-(3-hydroxy-3-methyl-but-1-ynyl)anilino]-5-fluoro-1H-quinazolin-2-one] | 32.8 nM | 13.4 nM
O=c1nc(N(CC(F)F)c2cc(F)cc(C#CC3(C(F)(F)F)CC3)c2)c2c(F)c(F)ccc2[nH]1 [Example 35, 4-[N-(2,2-difluoroethyl)-3-fluoro-5-[2-[1-(trifluoromethyl)cyclopropyl]ethynyl]anilino]-5,6-difluoro-1H-quinazolin-2-one] | 159 nM | 0.999 nM
CCn1c(=O)nc(N(CC(F)F)c2cc(F)cc(C#CC3(C(F)(F)F)CC3)c2)c2c(F)cccc21 [Example 36, 4-[N-(2,2-difluoroethyl)-3-fluoro-5-[2-[1-(trifluoromethyl)cyclopropyl]ethynyl]anilino]-1-ethyl-5-fluoro-quinazolin-2-one] | 184 nM | 21.1 nM
CCn1c(=O)nc(N(CC(F)F)c2cc(F)cc(C#CC(C)(C)O)c2)c2c(F)cccc21 [Example 37, 4-[N-(2,2-difluoroethyl)-3-fluoro-5-(3-hydroxy-3-methyl-but-1-ynyl)anilino]-1-ethyl-5-fluoro-quinazolin-2-one] | 54.3 nM | 39.6 nM
[2H]C([2H])([2H])n1c(=O)nc(N(CC(F)F)c2cc(F)cc(C#CC(C)(C)O)c2)c2c(F)cccc21 [Example 38, 4-[N-(2,2-difluoroethyl)-3-fluoro-5-(3-hydroxy-3-methyl-but-1-ynyl)anilino]-5-fluoro-1-(trideuteriomethyl)quinazolin-2-one] | 16 nM | 11.1 nM
O=c1nc(N(CC(F)F)c2cc(F)cc(-c3cnc(C4CC4)cn3)c2)c2c(F)c(F)ccc2[nH]1 [Example 39, 4-[3-(5-cyclopropylpyrazin-2-yl)-N-(2,2-difluoroethyl)-5-fluoro-anilino]-5,6-difluoro-1H-quinazolin-2-one] | 13.4 nM | 0.705 nM
O=c1nc(N2CCCc3c(C#CC4(C(F)(F)F)CC4)cccc32)c2c(F)c(F)ccc2[nH]1 [Example 40, 5,6-difluoro-4-[5-[2-[1-(trifluoromethyl)cyclopropyl]ethynyl]-3,4-dihydro-2H-quinolin-1-yl]-1H-quinazolin-2-one] | 13.4 nM | 0.399 nM
[2H]C([2H])([2H])n1c(=O)nc(N(CC(F)F)c2cc(F)cc(C#CC3(C(F)(F)F)CC3)c2)c2c(F)c(F)ccc21 [Example 41, 4-[N-(2,2-difluoroethyl)-3-fluoro-5-[2-[1-(trifluoromethyl)cyclopropyl]ethynyl]anilino]-5,6-difluoro-1-(trideuteriomethyl)quinazolin-2-one] | 9.63 nM | 1 nM
[2H]C([2H])([2H])n1c(=O)nc(N2CCCc3c(C#CC4(C(F)(F)F)CC4)cccc32)c2c(F)c(F)ccc21 [Example 42, 5,6-difluoro-1-(trideuteriomethyl)-4-[5-[2-[1-(trifluoromethyl)cyclopropyl]ethynyl]-3,4-dihydro-2H-quinolin-1-yl]quinazolin-2-one] | 9.48 nM | 0.311 nM
CC(C)(O)C#Cc1cccc2c1CCCN2c1nc(=O)[nH]c2cccc(F)c12 [Example 43, 5-fluoro-4-[5-(3-hydroxy-3-methyl-but-1-ynyl)-3,4-dihydro-2H-quinolin-1-yl]-1H-quinazolin-2-one] | 1.84 nM | 2.53 nM
[2H]C([2H])([2H])n1c(=O)nc(N(CC(F)F)c2cc(F)cc(-c3cnc(C4CC4)cn3)c2)c2c(F)cccc21 [Example 44, 4-[3-(5-cyclopropylpyrazin-2-yl)-N-(2,2-difluoroethyl)-5-fluoro-anilino]-5-fluoro-1-(trideuteriomethyl)quinazolin-2-one] | 11.2 nM | 1.43 nM
O=c1nc(N(CC(F)F)c2cncc(C#CC3(C(F)(F)F)CC3)c2)c2cc(F)ccc2[nH]1 [Example 45, 4-((2,2-difluoroethyl)(5-((1-(trifluoromethyl)cyclopropyl)ethynyl)pyridin-3-yl)amino)-6-fluoroquinazolin-2(1H)-one] | 67.4 nM | 6.18 nM
O=c1nc(N(CC(F)F)c2cccc(C#CC3(C(F)(F)F)CC3)n2)c2cc(F)ccc2[nH]1 [Example 46, 4-((2,2-difluoroethyl)(6-((1-(trifluoromethyl)cyclopropyl)ethynyl)pyridin-2-yl)amino)-6-fluoroquinazolin-2(1H)-one] | 86.9 nM | 15.3 nM
Cn1c(=O)nc(N(CC(F)F)c2cccc(C#CC3(C(F)(F)F)CC3)n2)c2cc(F)ccc21 [Example 47, 4-((2,2-difluoroethyl)(6-((1-(trifluoromethyl)cyclopropyl)ethynyl)pyridin-2-yl)amino)-6-fluoro-1-methylquinazolin-2(1H)-one] | 15 nM | 1.37 nM
O=c1nc(N(CC(F)F)c2cccc(C#CC3(C(F)(F)F)CC3)c2F)c2cc(F)ccc2[nH]1 [Example 48, 4-[N-(2,2-difluoroethyl)-2-fluoro-3-[2-[1-(trifluoromethyl)cyclopropyl]ethynyl]anilino]-6-fluoro-1H-quinazolin-2-one] | 62.8 nM | 5.29 nM
CC(C)(C#Cc1cccc(N(CC(F)F)c2nc(=O)[nH]c3ccc(F)cc23)c1F)C(F)(F)F [Example 49, 4-[N-(2,2-difluoroethyl)-2-fluoro-3-(4,4,4-trifluoro-3,3-dimethyl-but-1-ynyl)anilino]-6-fluoro-1H-quinazolin-2-one] | 296 nM | 5.3 nM
O=c1nc(N(CC(F)F)c2cc(F)cc(C#CC3(C(F)(F)F)CC3)c2)c2cc(F)ccc2[nH]1 [Example 50, 4-[N-(2,2-difluoroethyl)-3-fluoro-5-[2-[1-(trifluoromethyl)cyclopropyl]ethynyl]anilino]-6-fluoro-1H-quinazolin-2-one] | 213 nM | 1.81 nM
[2H]C([2H])([2H])n1c(=O)nc(N(CC(F)F)c2cc(F)cc(C#CC3(C(F)(F)F)CC3)c2)c2cc(F)ccc21 [Example 51, 4-[N-(2,2-difluoroethyl)-3-fluoro-5-[2-[1-(trifluoromethyl)cyclopropyl]ethynyl]anilino]-6-fluoro-1-(trideuteriomethyl)quinazolin-2-one] | 35.3 nM | 0.75 nM
COC(C)(C)C#Cc1cccc2c1CCCN2c1nc(=O)[nH]c2cccc(F)c12 [Example 52, 5-fluoro-4-[5-(3-methoxy-3-methyl-but-1-ynyl)-3,4-dihydro-2H-quinolin-1-yl]-1H-quinazolin-2-one] | 12.9 nM | 0.197 nM
CC(C)(C)C(O)C#Cc1cccc2c1CCCN2c1nc(=O)[nH]c2cccc(F)c12 (stereo not shown) [Example 53, 5-fluoro-4-[5-(3-hydroxy-4,4-dimethyl-pent-1-ynyl)-3,4-dihydro-2H-quinolin-1-yl]-1H-quinazolin-2-one] | 47.8 nM | 2.74 nM
CC(C)(O)CC#Cc1cccc2c1CCCN2c1nc(=O)[nH]c2cccc(F)c12 [Example 54, 5-fluoro-4-[5-(4-hydroxy-4-methyl-pent-1-ynyl)-3,4-dihydro-2H-quinolin-1-yl]-M-quinazolin-2-one] | 23.6 nM | 8.22 nM
[2H]C([2H])([2H])n1c(=O)nc(N2CCCc3c(C#CC(C)(C)O)cccc32)c2c(F)cccc21 [Example 55, 5-fluoro-4-[5-(3-hydroxy-3-methyl-but-1-ynyl)-3,4-dihydro-2H-quinolin-1-yl]-1-(trideuteriomethyl)quinazolin-2-one] | 5.82 nM | 4.68 nM
CCC(C)(O)C#Cc1cccc2c1CCCN2c1nc(=O)[nH]c2cccc(F)c12 (stereo not shown) [Example 56, 5-fluoro-4-[5-(3-hydroxy-3-methyl-pent-1-ynyl)-3,4-dihydro-2H-quinolin-1-yl]-1H-quinazolin-2-one] | 31.9 nM | 5.16 nM
CCC(O)(C#Cc1cccc2c1CCCN2c1nc(=O)[nH]c2cccc(F)c12)CC [Example 57, 4-[5-(3-ethyl-3-hydroxy-pent-1-ynyl)-3,4-dihydro-2H-quinolin-1-yl]-5-fluoro-1H-quinazolin-2-one] | 150 nM | 9.99 nM
O=c1nc(N(CC(F)F)c2cccc(C#CC3(C(F)(F)F)CC3)c2F)c2c(F)cccc2[nH]1 [Example 58, 4-[N-(2,2-difluoroethyl)-2-fluoro-3-[2-[1-(trifluoromethyl)cyclopropyl]ethynyl]anilino]-5-fluoro-1H-quinazolin-2-one] | 72.2 nM | 0.285 nM
CC(C)(O)C#Cc1cccc(N(CC(F)F)c2nc(=O)[nH]c3cccc(F)c23)c1F [Example 59, 4-[N-(2,2-difluoroethyl)-2-fluoro-3-(3-hydroxy-3-methyl-but-1-ynyl)anilino]-5-fluoro-M-quinazolin-2-one] | 7.63 nM | 14.5 nM
